Assay results reported in patent US9169291B2, “Covalent conjugates between endoperoxides and transferrin and lactoferrin receptor-binding agents” (University of Washington, priority 2006, dated 2015).
Where two headings read alike, the source gives them in different places.

Experiments:
[1] = tested on: normal human lymphocytes; test: Toxicity of artemisinin-tagged peptide in normal lymphocytes (cell counting)
Protocol: (§1) The artemisinin-tagged peptide HAIYPRH was tested on human Molt-4 lymphobastoid leukemia cells and compared with normal human lymphocytes, as follows. […] Cell viability was determined before an experiment by using trypan blue dye exclusion. After an initial counting of cells, human holotransferrin (Sigma Chemicals, St. Louis, Mo.) was added to samples of the cells. […] An equal volume of medium was added to control samples. […] At 24, 48 and 72 hrs after the addition of the tagged peptide, cell concentrations in appropriate flasks were counted using a counting hemocytometer chamber and microscope. In a similar set up, the same procedures were carried out on normal human lymphocytes.

[2] = tested on: human Molt-4 lymphobastoid leukemia cells; test: cells; details: for IC50: read-out: IC50 on Molt-4 cells
Protocol: as §1

[3] = tested on: DAOY human Medulloblastoma cells; details: for relative effectiveness on medulloblastoma cells (DAOY cells): two versus one artemisinin moiety
Protocol: DAOY human Medulloblastoma cells (10,000 cells/200 μL) were seeded on a 96 well plate and incubated for 24 h at 37° C. Cell culture medium was removed after 24 h and 150 μL of medium with different combinations of drug treatment was added. Human holotransferrin (20 μM) was added to half of the samples. Treatment medium was removed after 48 h, and 100 μL of cell medium was added, and the following protocol was used to determine cell viability: (1) 10 μL of 12 mM MTT reagent was added to each well; (2) the cultures were incubated at 37° C. for 4 h; (3) 100 μL of isopropanol was added to each well to lyse the cells and then incubated at 4° C. for 30 min; (4) after incubation each well was plunged (3×200 μL) to ensure the cells were lysed; (5) the samples were then centrifuged at 13,000 rpm in a microcentrifuge for 3 min at room temperature; and (6) 100 μL of the supernatant was read in a plate reader at λ=570 nm.

[4] = cited from earlier work
[5] = tested on: human leukemia cells; details: cited from earlier work

## C[C@H]1[C@@H](O)O[C@@H]2O[C@@]3(C)CC[C@H]4[C@H](C)CC[C@@H]1[C@@]24OO3 [DHA, dihydroartemisinin]
[1]; Homo sapiens, Lymphocyte, read-out: IC50 for normal leukocytes
  IC50: 43 ± 22 µM
[2]; Homo sapiens, MOLT-4, 72 h
  IC50: 5.3 ± 0.26 µM
[2]; fresh sample, after 72 hr
  LD50 (μM) (fresh sample): 5.3 ± 0.26 µM
[2]; stored in DMSO at room temperature for 30 days, after 72 hr
  LD50 (μM) (after stored in DMSO at room temperature for 30 days): 5.01 ± 0.35 µM

## CC[C@H](C)[C@H](NC(=O)[C@H](C)NC(=O)[C@H](Cc1c[nH]cn1)NC(=O)c1ccc(/C=N/NC(=O)c2ccc(COC3OC4O[C@@]5(C)CCC6[C@H](C)CCC([C@H]3C)[C@@]46OO5)cc2)cc1)C(=O)N[C@@H](Cc1ccc(O)cc1)C(=O)N1CCC[C@H]1C(=O)N[C@@H](CCCNC(=N)N)C(=O)N[C@@H](Cc1c[nH]cn1)C(N)=O (stereo partly shown) [ART-peptide]
[1]; 3.1, 6.2, 12.4 μM, 24, 48 and 72 hours
  effect on normal lymphocytes (cell viability): without affecting normal lymphocytes

## CC[C@H](C)[C@H](NC(=O)[C@H](C)NC(=O)[C@H](Cc1c[nH]cn1)NC(=O)[C@H](CCCCNC(=O)c1ccc(/C=N/NC(=O)c2ccc(COC3OC4O[C@@]5(C)CCC6[C@H](C)CCC([C@H]3C)[C@@]46OO5)cc2)cc1)NC(=O)c1ccc(/C=N/NC(=O)c2ccc(COC3OC4O[C@@]5(C)CCC6[C@H](C)CCC([C@H]3C)[C@@]46OO5)cc2)cc1)C(=O)N[C@@H](Cc1ccc(O)cc1)C(=O)N1CCC[C@H]1C(=O)N[C@@H](CCCNC(=N)N)C(=O)N[C@@H](Cc1c[nH]cn1)C(N)=O (stereo partly shown) [ART2-peptide]
[3]; 48 h treatment, MTT
  effect on medulloblastoma cells (DAOY cells): effective
[3]
  relative effectiveness on medulloblastoma cells (DAOY cells): more effective than ART-peptide
[3]; listed as peptide containing two artemisinin moieties
  relative effectiveness on medulloblastoma cells (DAOY cells): more potent than peptide containing one moiety
[2]; kept in DMSO at room temperature for one month
  change in activity after storage in DMSO: essentially no change in activity
[2]; at 72 hrs, holotransferrin 12 μM
  IC50: 0.86 ± 0.1 µM

## CO[C@H]1O[C@@H]2O[C@@]3(C)CC[C@H]4[C@H](C)CC[C@@H]([C@H]1C)[C@@]24OO3 [artemether]
[4]; patient with pituitary macroadenoma, oral, 12 months
  adverse side effects: without any observed adverse side effects

## C[C@@H]1CC[C@H]2[C@@H](C)C(=O)O[C@@H]3O[C@@]4(C)CC[C@@H]1[C@]32OO4 [Artemisinin]
[5]
  therapeutic index (toxicity towards cancer cells versus normal cells): approximately 100

## C[C@H]1[C@H](OC(=O)CCC(=O)O)O[C@@H]2O[C@@]3(C)CC[C@H]4[C@H](C)CC[C@@H]1[C@@]24OO3 [artesunate]
[4]; cancer patient, 9 months (i.m. 60 mg/day 15 days; oral 50 mg per day 8.5 months)
  adverse side effects: No apparent adverse side effects
